ChEMBL document CHEMBL1133572, “Protease inhibitors: current status and future prospects” (J Med Chem, 2000)
≈ marks a conversion by molar mass, not a printed value. Values belong to the compound of their own block, whether it stands above or below them. Residues, ends and D or L forms follow the SMILES beside them. *: point of attachment. Cbz = O=C(OCc1ccccc1)*; CHN2 = [N-]=[N+]=C*

Experiments:
[1] = The irreversible inhibitor activity by second order rate equation.; format: ADME
Neprilysin = target: T1, Neprilysin (Rattus norvegicus, UniProt P07861)
T1 sequence (P07861 whole entry): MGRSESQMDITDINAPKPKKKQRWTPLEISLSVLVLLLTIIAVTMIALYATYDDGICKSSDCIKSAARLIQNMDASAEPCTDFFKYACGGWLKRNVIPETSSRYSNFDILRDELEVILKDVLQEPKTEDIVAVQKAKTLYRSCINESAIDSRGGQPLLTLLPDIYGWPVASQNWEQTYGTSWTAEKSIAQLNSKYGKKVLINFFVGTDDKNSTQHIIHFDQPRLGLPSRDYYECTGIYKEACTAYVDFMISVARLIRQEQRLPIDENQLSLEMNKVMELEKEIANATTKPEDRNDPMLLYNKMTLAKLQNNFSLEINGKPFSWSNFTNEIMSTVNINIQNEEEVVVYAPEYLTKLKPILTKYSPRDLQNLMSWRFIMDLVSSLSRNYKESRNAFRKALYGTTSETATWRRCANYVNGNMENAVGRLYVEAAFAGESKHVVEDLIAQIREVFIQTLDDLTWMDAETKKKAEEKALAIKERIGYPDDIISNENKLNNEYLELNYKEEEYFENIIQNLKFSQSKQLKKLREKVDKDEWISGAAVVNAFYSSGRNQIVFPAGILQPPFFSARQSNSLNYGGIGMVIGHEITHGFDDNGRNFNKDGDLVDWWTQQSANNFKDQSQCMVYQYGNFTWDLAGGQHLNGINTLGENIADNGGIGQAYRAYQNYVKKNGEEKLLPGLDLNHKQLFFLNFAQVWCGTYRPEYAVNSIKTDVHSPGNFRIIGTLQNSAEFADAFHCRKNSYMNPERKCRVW

[2] = target: T2, Angiotensin-converting enzyme (Homo sapiens, UniProt P12821)
[3] = Oral bioavailability in human; format: ADME, organism-based; settings: in vivo
Procathepsin L [4] = target: T3, Procathepsin L (Homo sapiens, UniProt P07711); test: Inhibitory activity against cathepsin L, lysosomal cysteine protease
Interstitial collagenase = target: T4, Interstitial collagenase (Homo sapiens, UniProt P03956)
T4 sequence (P03956 whole entry): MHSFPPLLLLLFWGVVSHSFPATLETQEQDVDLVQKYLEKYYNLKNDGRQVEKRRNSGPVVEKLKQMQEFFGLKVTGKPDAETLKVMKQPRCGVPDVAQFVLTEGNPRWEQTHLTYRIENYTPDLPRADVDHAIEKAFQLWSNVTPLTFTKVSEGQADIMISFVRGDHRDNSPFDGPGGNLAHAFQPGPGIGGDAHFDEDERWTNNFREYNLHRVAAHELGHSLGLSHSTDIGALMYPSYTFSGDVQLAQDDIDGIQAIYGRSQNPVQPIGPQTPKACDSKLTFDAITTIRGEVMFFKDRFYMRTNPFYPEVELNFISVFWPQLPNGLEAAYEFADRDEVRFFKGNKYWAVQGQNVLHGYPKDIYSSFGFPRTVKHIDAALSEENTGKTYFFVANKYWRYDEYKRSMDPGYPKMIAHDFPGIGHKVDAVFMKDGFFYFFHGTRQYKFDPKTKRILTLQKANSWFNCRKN

Stromelysin-1 = Stromelysin-1 (Homo sapiens, UniProt P08254)
[5] = target: 72 kDa type IV collagenase (Homo sapiens, UniProt P08253)
Procathepsin L [6] = target: T3, Procathepsin L
Cathepsin B [7] = target: T5, Cathepsin B (Homo sapiens, UniProt P07858)
Tryptase = Tryptase (Homo sapiens, UniProt Q9BZJ3+Q15661+Q9NRR2); test: Binding affinity against Tryptase.; format: protein assay
Coagulation factor X = Coagulation factor X (Homo sapiens, UniProt P00742)
Caspase-1 = target: T6, Caspase-1 (Homo sapiens, UniProt P29466)
T6 sequence (P29466 whole entry): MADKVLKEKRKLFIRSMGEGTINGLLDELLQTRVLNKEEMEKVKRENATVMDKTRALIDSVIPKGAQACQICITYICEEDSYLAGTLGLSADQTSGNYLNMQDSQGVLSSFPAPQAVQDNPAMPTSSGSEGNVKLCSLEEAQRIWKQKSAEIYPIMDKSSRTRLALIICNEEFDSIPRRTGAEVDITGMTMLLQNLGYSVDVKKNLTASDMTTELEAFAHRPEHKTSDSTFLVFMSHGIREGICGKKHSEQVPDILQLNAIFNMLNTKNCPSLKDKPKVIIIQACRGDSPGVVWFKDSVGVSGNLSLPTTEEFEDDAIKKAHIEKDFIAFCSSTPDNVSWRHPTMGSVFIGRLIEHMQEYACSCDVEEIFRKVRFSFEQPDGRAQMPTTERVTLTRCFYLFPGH

Cathepsin B [8] = target: T5, Cathepsin B; test: Inhibitory activity against cathepsin B (po); format: organism-based
Cathepsin B [9] = target: T5, Cathepsin B; test: Inhibitory activity against cathepsin B (ip); format: organism-based
Cathepsin B [10] = target: T5, Cathepsin B; test: Inhibitory activity against cathepsin B (sc); format: organism-based
Serine protease 1 = Serine protease 1 (Homo sapiens, UniProt P07477); test: Inhibitory concentration against Trypsin
[11] = Inhibitory concentration against Chymotrypsinogen
Plasminogen = Plasminogen (Rattus norvegicus, UniProt Q01177); test: Inhibitory concentration against Plasmin
[12] = Inhibitory concentration against Elastase
[13] = target: T2, Angiotensin-converting enzyme; test: oral activity against angiotensin -converting enzyme ( ACE) and neutral endopeptidase in mouse.

T2 sequence (P12821 whole entry): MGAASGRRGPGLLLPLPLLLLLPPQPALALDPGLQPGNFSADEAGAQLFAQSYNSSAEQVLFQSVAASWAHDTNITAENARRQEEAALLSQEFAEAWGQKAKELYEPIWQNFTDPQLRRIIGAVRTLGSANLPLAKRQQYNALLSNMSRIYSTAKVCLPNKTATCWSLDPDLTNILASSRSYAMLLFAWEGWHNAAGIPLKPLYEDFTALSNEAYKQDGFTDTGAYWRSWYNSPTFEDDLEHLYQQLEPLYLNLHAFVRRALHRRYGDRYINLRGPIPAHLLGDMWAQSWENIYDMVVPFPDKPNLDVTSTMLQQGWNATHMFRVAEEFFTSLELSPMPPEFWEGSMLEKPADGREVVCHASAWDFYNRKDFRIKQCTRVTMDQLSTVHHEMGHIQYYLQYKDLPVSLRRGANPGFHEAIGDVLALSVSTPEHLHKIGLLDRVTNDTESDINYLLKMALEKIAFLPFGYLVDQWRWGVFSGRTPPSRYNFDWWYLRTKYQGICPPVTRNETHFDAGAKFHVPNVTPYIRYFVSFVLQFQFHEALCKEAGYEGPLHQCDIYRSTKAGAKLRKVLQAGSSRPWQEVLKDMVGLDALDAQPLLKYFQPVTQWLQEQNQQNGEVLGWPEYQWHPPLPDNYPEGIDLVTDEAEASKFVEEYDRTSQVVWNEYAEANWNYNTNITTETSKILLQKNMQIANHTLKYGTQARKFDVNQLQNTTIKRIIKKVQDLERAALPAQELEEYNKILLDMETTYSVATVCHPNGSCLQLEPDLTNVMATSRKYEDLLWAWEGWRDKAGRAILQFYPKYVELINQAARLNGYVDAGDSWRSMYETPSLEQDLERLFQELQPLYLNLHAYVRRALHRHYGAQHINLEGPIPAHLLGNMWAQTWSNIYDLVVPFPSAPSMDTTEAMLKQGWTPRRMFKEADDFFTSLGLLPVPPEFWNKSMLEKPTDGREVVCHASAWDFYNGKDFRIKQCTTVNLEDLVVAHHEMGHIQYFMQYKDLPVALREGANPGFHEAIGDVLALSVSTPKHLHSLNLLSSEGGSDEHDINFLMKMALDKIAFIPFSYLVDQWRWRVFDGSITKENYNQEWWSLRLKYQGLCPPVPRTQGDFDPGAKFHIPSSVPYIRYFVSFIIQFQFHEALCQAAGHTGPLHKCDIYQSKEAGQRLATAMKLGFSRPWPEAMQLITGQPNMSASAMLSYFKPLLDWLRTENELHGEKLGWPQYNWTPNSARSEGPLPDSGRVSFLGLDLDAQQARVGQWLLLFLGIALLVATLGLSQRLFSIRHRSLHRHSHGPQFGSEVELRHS
T3 sequence (P07711 whole entry): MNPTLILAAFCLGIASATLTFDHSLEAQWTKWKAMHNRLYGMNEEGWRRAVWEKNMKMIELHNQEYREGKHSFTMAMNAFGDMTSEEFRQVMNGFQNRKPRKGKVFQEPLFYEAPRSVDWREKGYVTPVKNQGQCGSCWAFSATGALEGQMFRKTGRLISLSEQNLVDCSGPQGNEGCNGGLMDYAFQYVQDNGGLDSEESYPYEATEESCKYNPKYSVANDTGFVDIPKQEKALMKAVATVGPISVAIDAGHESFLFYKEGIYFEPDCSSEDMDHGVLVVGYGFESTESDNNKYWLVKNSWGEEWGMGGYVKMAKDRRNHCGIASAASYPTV
Stromelysin-1, sequence (P08254 whole entry): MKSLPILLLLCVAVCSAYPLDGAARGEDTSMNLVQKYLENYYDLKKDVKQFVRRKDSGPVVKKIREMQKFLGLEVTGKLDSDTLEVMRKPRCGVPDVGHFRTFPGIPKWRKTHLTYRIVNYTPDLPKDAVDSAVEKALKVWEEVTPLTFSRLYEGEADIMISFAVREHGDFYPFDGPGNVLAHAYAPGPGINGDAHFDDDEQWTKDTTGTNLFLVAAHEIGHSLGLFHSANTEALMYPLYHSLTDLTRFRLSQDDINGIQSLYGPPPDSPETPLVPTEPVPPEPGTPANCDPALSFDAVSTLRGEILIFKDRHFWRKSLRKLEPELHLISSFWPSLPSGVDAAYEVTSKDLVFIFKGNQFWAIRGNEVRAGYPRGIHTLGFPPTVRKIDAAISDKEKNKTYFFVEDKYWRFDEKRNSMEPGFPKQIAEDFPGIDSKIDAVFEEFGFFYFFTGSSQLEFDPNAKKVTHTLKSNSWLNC
Plasminogen, sequence (Q01177 97-581 limits assumed): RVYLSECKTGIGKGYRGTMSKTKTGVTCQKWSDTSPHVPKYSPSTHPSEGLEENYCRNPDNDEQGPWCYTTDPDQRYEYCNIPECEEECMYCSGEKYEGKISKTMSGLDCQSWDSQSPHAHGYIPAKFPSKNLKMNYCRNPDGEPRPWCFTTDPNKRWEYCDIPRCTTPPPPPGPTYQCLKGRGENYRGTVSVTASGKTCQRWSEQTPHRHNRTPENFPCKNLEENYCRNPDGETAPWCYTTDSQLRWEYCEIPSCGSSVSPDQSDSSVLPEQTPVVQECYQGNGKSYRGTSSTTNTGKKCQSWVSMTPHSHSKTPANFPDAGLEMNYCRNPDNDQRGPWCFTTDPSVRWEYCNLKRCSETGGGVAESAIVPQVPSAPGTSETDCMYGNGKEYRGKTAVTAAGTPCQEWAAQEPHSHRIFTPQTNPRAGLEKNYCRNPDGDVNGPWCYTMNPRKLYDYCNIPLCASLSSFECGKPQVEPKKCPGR
Plasminogen, sequence (Q01177 582-812 limits assumed): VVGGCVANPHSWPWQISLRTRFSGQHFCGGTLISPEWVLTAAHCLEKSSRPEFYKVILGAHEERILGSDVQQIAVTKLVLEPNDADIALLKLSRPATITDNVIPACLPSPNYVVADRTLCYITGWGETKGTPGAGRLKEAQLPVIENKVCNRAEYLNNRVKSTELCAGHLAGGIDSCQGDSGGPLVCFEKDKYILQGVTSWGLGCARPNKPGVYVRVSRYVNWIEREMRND
Coagulation factor X, sequence (P00742 41-179 limits assumed): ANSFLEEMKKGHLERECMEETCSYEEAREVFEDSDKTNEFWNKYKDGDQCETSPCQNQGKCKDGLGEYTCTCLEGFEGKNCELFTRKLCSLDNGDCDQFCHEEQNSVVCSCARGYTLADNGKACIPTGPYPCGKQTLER
Coagulation factor X, sequence (P00742 235-488 limits assumed): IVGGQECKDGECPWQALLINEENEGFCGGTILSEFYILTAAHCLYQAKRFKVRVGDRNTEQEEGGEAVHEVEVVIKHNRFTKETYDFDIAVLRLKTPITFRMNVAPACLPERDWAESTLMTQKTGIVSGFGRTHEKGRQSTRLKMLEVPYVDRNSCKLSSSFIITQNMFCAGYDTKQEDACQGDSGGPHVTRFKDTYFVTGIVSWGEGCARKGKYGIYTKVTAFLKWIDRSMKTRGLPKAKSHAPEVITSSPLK
72 kDa type IV collagenase, sequence (P08253 whole entry): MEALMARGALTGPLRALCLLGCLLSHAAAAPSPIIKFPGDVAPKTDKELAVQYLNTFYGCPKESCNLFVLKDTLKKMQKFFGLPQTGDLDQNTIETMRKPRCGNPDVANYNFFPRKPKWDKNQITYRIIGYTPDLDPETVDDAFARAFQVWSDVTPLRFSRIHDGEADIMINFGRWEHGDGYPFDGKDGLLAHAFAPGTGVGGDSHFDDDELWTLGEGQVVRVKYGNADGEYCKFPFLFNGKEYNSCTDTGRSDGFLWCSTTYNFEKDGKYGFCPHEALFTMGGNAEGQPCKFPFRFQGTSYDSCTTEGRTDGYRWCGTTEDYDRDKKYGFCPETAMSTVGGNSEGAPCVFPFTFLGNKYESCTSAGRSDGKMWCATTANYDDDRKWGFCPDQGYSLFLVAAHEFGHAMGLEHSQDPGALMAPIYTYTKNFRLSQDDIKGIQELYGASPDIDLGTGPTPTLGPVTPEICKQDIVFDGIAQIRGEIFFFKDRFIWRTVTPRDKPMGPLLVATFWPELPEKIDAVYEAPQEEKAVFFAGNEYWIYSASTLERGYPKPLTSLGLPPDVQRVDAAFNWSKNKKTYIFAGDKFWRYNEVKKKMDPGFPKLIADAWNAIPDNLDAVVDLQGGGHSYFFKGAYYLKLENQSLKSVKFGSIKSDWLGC
Serine protease 1, sequence (P07477 whole entry): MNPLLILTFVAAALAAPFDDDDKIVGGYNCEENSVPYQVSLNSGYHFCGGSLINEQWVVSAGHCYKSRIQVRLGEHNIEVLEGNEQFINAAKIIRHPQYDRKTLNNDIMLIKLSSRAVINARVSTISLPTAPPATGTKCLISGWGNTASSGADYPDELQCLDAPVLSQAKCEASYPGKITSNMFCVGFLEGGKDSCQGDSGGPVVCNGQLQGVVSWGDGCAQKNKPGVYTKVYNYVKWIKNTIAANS

SMILES: [N-]=[N+]=CC(=O)[C@H](Cc1ccccc1)NC(=O)[C@H](Cc1ccccc1)NC(=O)OCc1ccccc1 (Cbz-Phe-Phe-CHN2)
- IC50 (Procathepsin L [4]): 50 nM

SMILES: CC(C)C[C@H](NC(=O)OCc1ccccc1)C(=O)NC1CCN(S(=O)(=O)c2ccc(Oc3ccccc3)cc2)CC1=O (some centres not stated)
- Ki (Procathepsin L [6]): > 1000 nM
- Ki (Cathepsin B [7]): > 1000 nM

SMILES: CCOC(=O)[C@H](CCc1ccccc1)N[C@H]1CCc2ccccc2N(CC(=O)O)C1=O [BENAZEPRIL]
- IC50 [2]: 1.7 nM

SMILES: N=C(N)NCCC[C@H](NC(=O)c1ccc2ccccc2c1O)C(=O)N1CCC[C@H]1C(N)=O
- Ki (Tryptase): 840 nM

SMILES: COC(=O)[C@H](Cc1cccc(C(=N)N)c1)[C@@H](/C=C/c1ccccc1)NC(=O)c1ccc(-c2ccc(OC)c(OC)c2)cc1
- IC50 (Coagulation factor X): 30 nM

SMILES: COCCOCC(CC1(C(=O)N[C@H]2CC[C@@H](C(=O)O)CC2)CCCC1)C(=O)Oc1ccc2c(c1)CCC2 (some centres not stated)
- IC50 (Neprilysin): 28 nM

SMILES: Cc1cc(C)c(C(=O)OCC(=O)[C@H](CCCCN)NC(=O)[C@H](Cc2ccccc2)NC(=O)OCc2ccccc2)c(C)c1
- ED50 (Cathepsin B [8]): 18 mg/kg
- ED50 (Cathepsin B [9]): 5 mg/kg
- ED50 (Cathepsin B [10]): 2.4 mg/kg

SMILES: CC(=O)OCCC/C(=C1/SC(=S)N(CC(=O)O)C1=O)c1ccc(Br)cc1
- IC50 (Serine protease 1): 39900 nM
- IC50 [11]: 15.6 µg/mL (≈ 34 µM)
- IC50 (Plasminogen): > 109000 nM
- IC50 [12]: > 50 µg/mL

SMILES: CC(=O)SC[C@@H](Cc1ccc2c(c1)OCO2)C(=O)N[C@@H](C)C(=O)OCc1ccccc1
- ED50 [13]: 0.5 mg/kg

SMILES: CNC(=O)[C@@H](NC(=O)[C@H](CCCCOc1ccccc1)CP(=O)(O)Cc1ccc(Cc2ccccc2)cc1)C(C)(C)C
- Ki (Interstitial collagenase): > 30000 nM
- Ki (Stromelysin-1): 30 nM

SMILES: CC1(C)CCCC(NC(=O)[C@@H](S)Cc2ccccc2)C(=O)N1CC(=O)O (some centres not stated)
- IC50 (Neprilysin): 63 nM
- IC50 [2]: 12 nM

Next, values leading:

- K second [1]: 8.7 M⁻¹ s⁻¹
SMILES: CC(C)C[C@H](NC(=O)[C@H]1O[C@@H]1C(=O)O)C(=O)N1CCC[C@H]1C(=O)OCc1ccccc1

- IC50 (Neprilysin): 8 nM
- IC50 [2]: 5 nM
SMILES: O=C(NC1CCC[C@H]2CCC[C@@H](C(=O)O)N2C1=O)[C@@H](S)Cc1ccccc1 (some centres not stated)

- bioavailability [3]: < 1%
SMILES: CCCCNC(=O)[C@@H](C[C@H](O)[C@H](CC1CCCCC1)NC(=O)[C@H](Cc1c[nH]cn1)NC(=O)[C@H](Cc1ccccc1)CS(=O)(=O)C(C)(C)C)C(C)C

- Ki (Interstitial collagenase): < 1 nM
- Ki (Stromelysin-1): < 1 nM
- Ki [5]: < 3 nM
SMILES: CNC(=O)[C@@H]1CCCCN(C(=O)OC(C)(C)C)CCC[C@H](C(=O)NO)[C@@H](CC(C)C)C(=O)N1

- IC50 (Caspase-1): 10400 nM
SMILES: CC(=O)N[C@@H](CC(=O)O)C(=O)N[C@H]1CCC[C@H]2SC[C@@H](C(=O)N[C@H]3CC(=O)OC3O)N2C1=O (some centres not stated)
